Values after ≈ are worked out from the molar mass of the structure shown.
Assays:
[1] = Inhibition of MERS-CoV (KOR/KNIH/002_05_2015) 3C-like protease expressed in Escherichia coli BL21(DE3) using Dabcyl-KTSAVLQSGFRKME-Edans as substrate by fluorometric assay; design: species or system Middle East respiratory syndrome-related coronavirus
[2] = Inhibition of SARS-CoV 3C-like protease expressed in Escherichia coli BL21(DE3) using Dabcyl-KTSAVLQSGFRKME-Edans as substrate by fluorometric assay; design: species or system Severe acute respiratory syndrome-related coronavirus
[3] = Inhibition of SARS-CoV 3C-like protease using abz-SVTLQSG-Tyr(NO2)R as substrate by spectrofluorimetric assay; design: species or system Severe acute respiratory syndrome-related coronavirus
[4] = Inhibition of SARS-CoV nucleocapsid protein expressed in Escherichia coli BL21 (DE3) incubated for 1 hr by quantum dots-conjugated oligonucleotide biochip-platform based confocal laser scanning microscopic analysis; design: species or system Severe acute respiratory syndrome-related coronavirus
[5] = Inhibition of SARS-CoV wild type NSP13 helicase using Cy3-labeled 31/18-mer as substrate measured after 10 min by FRET-based assay; design: species or system Severe acute respiratory syndrome-related coronavirus
[6] = Inhibition of SARS-CoV NSP13 helicase using fluorescein and black hole quencher labelled dsDNA as substrate measured after 10 min by FRET-based assay; design: species or system Severe acute respiratory syndrome-related coronavirus
[7] = Inhibition of SARS-CoV C-terminal 6His-tagged papain-like protease expressed in Escherichia coli BL21(DE3) using ubiquitin-AMC as substrate preincubated for 10 mins followed by substrate addition by luminescence spectrometric method; design: species or system Severe acute respiratory syndrome-related coronavirus
[8] = Inhibition of HcoV-EMC 3C-like protease; design: species or system unidentified human coronavirus
[9] = Inhibition of 3C-like protease in SARS-CoV2 infected in African green monkey vero cells assessed as antiviral activity incubated for 1 hr by crystal violet staining based plaque reduction assay; type: cell-based; settings: Severe acute respiratory syndrome coronavirus 2, Vero
[10] = Inhibition of SARS-CoV C-terminal (GPH6 residues)-fused wild type 3C-like protease expressed in Escherichia coli BL21(DE3) cells using MCA-AVLQSGFR-Lys(Dnp)-Lys-NH2 s substrate by fluorescence method; design: species or system Severe acute respiratory syndrome-related coronavirus
[11] = Inhibition of SARS-CoV wild type 3C-like protease using MCA-AVLQSGFR-Lys(Dnp)-Lys-NH2 s substrate by fluorescence method; design: species or system Severe acute respiratory syndrome-related coronavirus
[12] = (§1) Inhibition of SARS-CoV spike protein expressed in Escherichia coli BL21(DE3)pLysS/human ACE2 using 2,2'-azinobis(3-ethylbenzthiazoline-sulfonic acid) at 10 nmol preincubated for 2 hrs with biotinylated S protein followed by incubation with ACE2 for 1 hr and subsequent substrate addition by competitive biotinylated ELISA relative to control; settings: time 3.0 hrs
[13] = as §1, with “acid)” for “acid) at 10 nmol”, “ELISA” for “ELISA relative to control”
[14] = target: T1, mRNA cap guanine-N(7) methyltransferase (Homo sapiens, UniProt O43148)
T1 sequence (O43148 whole entry): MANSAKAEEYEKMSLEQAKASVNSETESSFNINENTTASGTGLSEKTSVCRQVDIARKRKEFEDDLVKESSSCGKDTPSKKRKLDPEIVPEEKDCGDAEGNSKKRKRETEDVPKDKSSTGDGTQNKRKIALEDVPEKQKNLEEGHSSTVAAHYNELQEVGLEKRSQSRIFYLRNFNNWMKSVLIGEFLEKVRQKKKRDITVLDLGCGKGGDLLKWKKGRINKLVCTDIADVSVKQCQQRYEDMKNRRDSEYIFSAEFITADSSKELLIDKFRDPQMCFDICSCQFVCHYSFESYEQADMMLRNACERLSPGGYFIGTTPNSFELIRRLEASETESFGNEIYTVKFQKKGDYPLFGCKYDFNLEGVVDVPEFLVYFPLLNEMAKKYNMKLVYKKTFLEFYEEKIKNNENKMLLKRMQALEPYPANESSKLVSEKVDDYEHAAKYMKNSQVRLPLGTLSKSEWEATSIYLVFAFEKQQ

[15] = target: T1, mRNA cap guanine-N(7) methyltransferase; remark: listed apart in the source
[16] = test system: guanine-N7 methyltransferase (human versus SARS coronavirus WHU); test: in vitro
[17] = test system: guanine-N7 methyltransferase (human versus SARS-CoV); test: in vitro
[18] = Inhibition of SARS-CoV papain-like protease (723 to 1041 residues) expressed in Escherichia coli BL21(DE3) using Arg-Leu-Arg-Gly-Gly-AMC as substrate by fluorescence method; design: species or system Severe acute respiratory syndrome-related coronavirus
[19] = Inhibition of SARS-CoV 3C-like protease (9970 to 10887 residues) expressed in Escherichia coli BL21(DE3) CodonPlus-RIL cells using DABCYL-KTSAVLQSGFRKME-EDANS as substrate by FRET assay; design: species or system Severe acute respiratory syndrome-related coronavirus
[20] = Inhibition of envelope protein in Murine hepatitis virus A59 infected in mouse L929 cells assessed as reduction in viral replication incubated for 24 hrs by crystal violet staining based plaque reduction assay; type: cell-based; settings: Murine coronavirus, A59, L929, 24 h
[21] = Inhibition of envelope protein in HCoV-229E infected in human MRC-5 cells assessed as reduction in viral replication incubated for 6 days by crystal violet staining based plaque reduction assay; type: cell-based; settings: Human coronavirus 229E, MRC5, 144 h
[22] = Inhibition of SARS-CoV2 3C-like protease (3264 to 3569 residues) expressed in Escherichia coli BL21(DE3) BL21-Gold using Dabcyl-KTSAVLQSGFRKM-E(Edans)-NH2 as substrate preincubated for 10 min followed by substrate addition by FRET assay; design: species or system Severe acute respiratory syndrome coronavirus 2
[23] = Inhibition of SARS-CoV 3C-like protease by FRET assay; design: species or system Severe acute respiratory syndrome-related coronavirus
[24] = Inhibition of MERS-CoV 3C-like protease; design: species or system Middle East respiratory syndrome-related coronavirus
[25] = Inhibition of MERS-CoV NSP13 helicase measured after 5 min by FRET-based assay; design: species or system Middle East respiratory syndrome-related coronavirus
[26] = Inhibition of SARS-CoV NSP13 helicase in presence of DT20Cy3 and ReleaseBHQ by FRET-based assay; design: species or system Severe acute respiratory syndrome-related coronavirus
[27] = Inhibition of SARS-CoV(BJ-01) 3C-like protease infected in African green monkey Vero cells assessed as reduction in viral titer incubated for 48 hrs by crystal violet staining based plaque reduction assay; type: cell-based; settings: Severe acute respiratory syndrome-related coronavirus, BJ-01, Vero
[28] = Inhibition of His-tagged SARS-CoV HKU39849 3C-like protease expressed in Escherichia coli BL21 assessed as reduction in cleavage activity using H2N-TSAVLQSGFRKW-COOH as substrate preincubated for 30 mins followed by substrate addition by HPLC-based assay; design: species or system Severe acute respiratory syndrome-related coronavirus
[29] = Inhibition of SARS-CoV papain-like protease using Ub-7-amino-4-trifluoro-methylcoumarin as substrate incubated for 3 mins by fluorescence method; design: species or system Severe acute respiratory syndrome-related coronavirus
[30] = Inhibition of MERS-CoV papain-like protease using Ub-7-amino-4-trifluoro-methylcoumarin as substrate incubated for 3 mins by fluorescence method; design: species or system Middle East respiratory syndrome-related coronavirus
[31] = Inhibition of SARS-CoV N-terminal His-tagged 3C-like protease expressed in Escherichia coli GJ1158 using 2-aminobenzoyl-SVTLQSG-Tyr(NO2)-R as substrate by quenched-FRET assay; design: species or system Severe acute respiratory syndrome-related coronavirus
[32] = Inhibition of SARS-CoV 3C-like protease expressed in Escherichia coli BL21(DE3) using DABCYL-KTSAVLQSGFRKME-EDANS as substrate preincubated for 1 hr followed by substrate addition and measured after 16 hrs by fluorescence method; design: species or system Severe acute respiratory syndrome-related coronavirus

With `O=C[C@H](C[C@@H]1CCNC1=O)NC(=O)[C@H](Cc1ccccc1)NC(=O)/C=C/c1ccc(Cl)cc1F` the IC50 [1] was 1700 nM and the IC50 [2] was 200 nM.

With `O=C(Cc1cncc(Br)c1)c1ccc(-c2ccc(Cl)cc2)o1` the IC50 [3] was 13 µM.

Compound `O=C(O[C@@H]1Cc2c(O)cc(O)cc2O[C@H]1c1cc(O)c(O)c(O)c1)c1cc(O)c(O)c(O)c1` [GALLOCATECHIN GALLATE] has an IC50 [4] of 5 ng/mL (≈ 0.0109 µM).

`C=CCn1c(S)nnc1CSc1ccccc1[N+](=O)[O-]` showed an IC50 [5] of 5.9 µM and an IC50 [6] of 6 µM.

`Nc1nc2[nH]cnc2c(=S)[nH]1` [THIOGUANINE] gave an IC50 [7] of 5 µM.

In the case of `Cc1cc(C(=O)N[C@@H](C)C(=O)N[C@H](C(=O)N[C@@H](CC(C)C)C(=O)N[C@H](/C=C/C(=O)OCc2ccccc2)C[C@@H]2CCNC2=O)C(C)C)no1`, the IC50 [8] is reported as 280 nM, the EC50 [9] is reported as 16.8 µM and the Ki [10] is reported as 2300 nM. It also gave a Ki [11] of 1900 nM.

H-SQKSIVAYTM-NH2 showed an inhibition [12] of 90% and an IC50 [13] of 1.8 nM.

In the case of `Nc1ncnc2c1ncn2[C@@H]1O[C@H](C[C@@H](N)CC[C@H](N)C(=O)O)[C@@H](O)[C@H]1O` [SINEFUNGIN], the IC50 [14] is reported as 0.55 nM, the IC50 [15] is reported as < 50 nM and the selectivity ratio [16] is reported as 0.32. The selectivity ratio [17] was < 2.63.

`C=C(C)C(Cc1c(OC)ccc(C(=O)/C=C/c2ccc(O)cc2)c1O)C(=O)O` (stereo not drawn) showed an IC50 [18] of 1200 nM and an IC50 [19] of 11.4 µM.

For `N=C(N)NC(=O)c1nc(Cl)c(N2CCCCCC2)nc1N` [N,N-HEXAMETHYLENEAMILORIDE], the EC50 [20] was 3.91 µM and the EC50 [21] was 1340 nM.

Compound `CC(C)(C)OC(=O)Nc1cccn([C@@H](CC2CC2)C(=O)N[C@@H](C[C@@H]2CCCC2=O)C(=O)C(=O)NCc2ccccc2)c1=O` has an IC50 [22] of 670 nM, an IC50 [23] of 900 nM and an IC50 [24] of 580 nM.

In the case of `Sc1nnc(NNc2ccc(I)cc2)n1NC1C=CCC1` (stereo not drawn), the IC50 [25] is reported as 2500 nM.

Compound `O=C(O[C@@H]1Cc2c(O)cc(O)cc2O[C@H]1c1ccc(O)c(O)c1)c1cc(O)c(O)c(O)c1` [(-)-CATECHINGALLATE] has an IC50 [4] of 5 ng/mL (≈ 0.0113 µM).

`Cc1ncc(CO)c(C23OC4(O)CC(O)(CC(O)(C4)O2)O3)c1O` gave an IC50 [26] of 3000 nM.

For `CC1=C(C(=O)OCCc2ccccc2)C(c2ccccc2[N+](=O)[O-])C2=C(CCCC2=O)N1` (stereo not drawn), the IC50 [27] was 8.9 µM and the IC50 [28] was 2500 nM.

Compound `CCN(CC)C(=S)SSC(=S)N(CC)CC` has an IC50 [29] of 14.2 µM and an IC50 [30] of 22.7 µM.

Work on `O=C(Oc1cncc(Cl)c1)c1cccs1` yielded an IC50 [31] of 500 nM.

In the case of `C[C@@H]1O[C@@H](O[C@H]2[C@@H](Oc3cc(O)c4c(=O)cc(-c5ccc(O)cc5)oc4c3)O[C@H](CO)[C@@H](O)[C@@H]2O)[C@H](O)[C@H](O)[C@H]1O`, the IC50 [32] is reported as 27.5 µM.

From ChEMBL document CHEMBL4715856 (Bioorg Med Chem, 2020)
